Experimental data taken from PMC11292009, “Mapping protein binding sites by photoreactive fragment pharmacophores” (Communications Chemistry, 2024).
Several values for one entry are separate records, joined by “and”; a condition that tells them apart may be missing. Equal entries are not always repeated.

Legend:
Format in all cases: cell-based, human
PANC-1 cells = assay: MTT cell viability assay, PANC-1; settings: for cell viability: replicates
From the text: (§1) Pancreatic cancer cell lines PANC-1 (cat. no. CRL-1469), SW1990 (cat. no. CRL-2172) were obtained from ATCC (American Type Culture Collection). Genetically modified isogeneic colon cancer cell lines SW48-PAR and SW48-G12D were obtained from Horizon Discovery Ltd. PANC-1 (human pancreatic cancer, KRas^G12D), SW1990 (human pancreatic cancer, KRas^G12D), SW48-PAR (human colon cancer; parental cell line KRas^wt), and SW48-G12D (human colon cancer; heterozygous knockin of the KRas^G12D activating mutation) cancer cell lines were cultured in Roswell Park Memorial Institute Medium (RPMI; Biosera, Nuaille, France), supplemented with 10% heat-inactivated Fetal Bovine Serum (FBS; Biosera), and with 1% Penicillin/Streptomycin (Biosera). Cells were cultured in sterile T75 flasks with ventilation cap (Sarstedt, Nümbrecht, Germany) at 37 °C in a humidified atmosphere with 5% CO2 in ESCO CelCulture Incubator (ESCO, Friedberg, Germany). Manipulations with the cells were performed in biosafety cabinet (laminar) ESCO Sentinel Gold class II model AC2-4E8 (ESCO).
(§2) After standard harvesting of the cells by trypsin-EDTA (Biosera), 7 × 10^3 cells per well depending on the cell line, were seeded in serum-containing growth medium to 96-well plates and incubated. After 24 h, cells were treated with various concentrations of fragments (32 nM–100 μM), dissolved in serum-containing medium, and incubated under standard conditions. Control wells were treated with medium. Final concentration of serum was 2.5%, final concentration of DMSO was 0.2%. Treatment was for 72 h continuously.
(§3) Afterwards, MTT assay was performed in order to determine cell viability, by adding 20 μL of MTT solution (5 mg/mL in PBS) to each well and after 2 h of incubation at 37 °C, the supernatant was removed. The formazan crystals were dissolved in 100 μL of a 1:1 solution of DMSO (Sigma-Aldrich):EtOH (Molar Chemicals) and the absorbance was measured after 15 min at λ = 570 nm by using a microplate reader (BioTek 800TS, Agilent, Santa Clara, CA, USA). The IC50 values of the fragments were calculated using GraphPad Prism 6 (GraphPad Software, San Diego, CA, USA). The experiments were done in triplicate, and each experiment was repeated two times.

SW1990 cells = assay: MTT cell viability assay, SW1990; settings: for cell viability: replicates, in % (unit assumed)
From the text: as §1, §2, §3

SW48-PAR cells = assay: MTT cell viability assay, SW48-PAR; settings: for cell viability: replicates, in % (unit assumed)
From the text: as §1, §2, §3

SW48-G12D cells = assay: MTT cell viability assay, SW48-G12D; settings: for cell viability: replicates, in % (unit assumed)
From the text: as §1, §2, §3

For `Cc1ncc(CO)c(CNC(=O)CCC2(C)N=N2)c1O` [PhP072, Cc1ncc(CO)c(c1O)CNC(=O)CCC2(C)N=N2], the IC50 (PANC-1 cells; Homo sapiens, read-out: IC50, antiproliferative activity, PANC-1, MTT, 72 h) was 22.6 µM, the cell viability (PANC-1 cells; PANC-1, [PhP072] 3.2e-8 M, in % (unit assumed)) was 94.1678 and 97.1333 and 95.7988 and 102.516 and 102.977 and 106.78 and the cell viability (PANC-1 cells; PANC-1, [PhP072] 1.6e-7 M) was 92.8333 and 84.2333 and 97.1333 and 102.977 (2×) and 103.899. The cell viability (PANC-1 cells; PANC-1, [PhP072] 8e-7 M) was 87.6436 and 92.0919 and 90.4609 and 96.2933 (2×) and 94.7953, the cell viability (PANC-1 cells; PANC-1, [PhP072] 4e-6 M, in % (unit assumed)) was 82.1574 and 83.0471 and 79.785 and 89.6098 and 90.0707 and 84.5396 and the cell viability (PANC-1 cells; PANC-1, [PhP072] 2e-5 M, in % (unit assumed)) was 72.9643 and 73.7057 and 70.7401 and 83.3872 and 78.8931 and 79.2388. For the same compound, the cell viability (PANC-1 cells; PANC-1, [PhP072] 0.0001 M) was 57.9884 and 55.9125 and 55.7642 and 57.9207 and 64.7194 (2×), the IC50 (SW1990 cells; Homo sapiens, read-out: IC50, antiproliferative activity, SW1990, MTT, 72 h) was 17.2 µM and the cell viability (SW1990 cells; SW1990, [PhP072] 3.2e-8 M) was 101.695 and 98.3609 and 102.528 and 107.265 and 99.8137 and 96.5538. The cell viability (SW1990 cells; SW1990, [PhP072] 1.6e-7 M) was 103.195 and 101.49 and 102.515 and 96.4606, the cell viability (SW1990 cells; SW1990, [PhP072] 8e-7 M) was 103.528 and 101.528 and 95.5272 and 94.039 and 99.4411 and 93.387 and the cell viability (SW1990 cells; SW1990, [PhP072] 4e-6 M) was 101.861 and 97.8608 and 97.1941 and 99.9069 and 97.2989 and 95.6224. For the same compound, the cell viability (SW1990 cells; SW1990, [PhP072] 2e-5 M) was 90.5265 and 81.8586 and 88.0261 and 89.1956 and 90.8722 and 79.3227, the cell viability (SW1990 cells; SW1990, [PhP072] 0.0001 M) was 62.6893 and 57.5219 and 66.8565 and 62.4641 and 63.023 and 60.1356 and the Antiproliferative effect (SW48-PAR cells; MTT, 72 h) was “antiproliferative activity”. For the same compound, the cell viability (SW48-PAR cells; [PhP072] 3.2e-8 M) was 110.532 and 99.0425 and 106.761 and 103.567 and 100.905, the cell viability (SW48-PAR cells; [PhP072] 1.6e-7 M) was 106.815 and 103.774 and 96.677 and 105.91 and 101.544 and 99.8403 and the cell viability (SW48-PAR cells; [PhP072] 8e-7 M) was 103.098 and 102.084 and 99.3805 and 101.65 and 100.905 and 100.16. For the same compound, the cell viability (SW48-PAR cells; [PhP072] 4e-6 M) was 97.3529 and 105.125 and 97.3912 and 92.7061 and 92.8126, the cell viability (SW48-PAR cells; [PhP072] 2e-5 M) was 98.3667 and 91.9459 and 92.9597 and 81.7386 and 78.0118 and 75.2433 and the cell viability (SW48-PAR cells; [PhP072] 0.0001 M) was 78.0907 and 76.0631 and 71.332 and 66.8313 and 68.322 and 64.4887. The Antiproliferative effect (SW48-G12D cells; MTT, 72 h) was “antiproliferative activity”, the cell viability (SW48-G12D cells; [PhP072] 3.2e-8 M) was 102.762 and 97.2381 and 95.6914 and 100.978 and 97.4052 and 99.447 and the cell viability (SW48-G12D cells; [PhP072] 1.6e-7 M) was 100.994 and 98.1219 and 99.0057 and 100.978 and 99.7022 and 99.9575. The cell viability (SW48-G12D cells; [PhP072] 8e-7 M) was 99.8895 and 99.2267 and 100.552 and 98.9365 and 101.489, the cell viability (SW48-G12D cells; [PhP072] 4e-6 M) was 98.5638 and 96.7962 and 95.0285 and 98.9365 and 100.723 and 98.6813 and the cell viability (SW48-G12D cells; [PhP072] 2e-5 M) was 91.4933 and 92.1561 and 91.9352 and 92.8111 and 94.0872 and 91.5349. For the same compound, the cell viability (SW48-G12D cells; [PhP072] 0.0001 M) was 75.1427 and 76.0265 and 77.5732 and 78.5183 and 77.2421 and 80.3049.
